Data from PMC5754413, “Mass balance, metabolic disposition, and pharmacokinetics of a single oral dose of regorafenib in healthy human subjects” (Cancer Chemotherapy and Pharmacology, 2017).

Assays:
[1] = Metabolite profiling in plasma by HPLC–LSC; assay type: in vivo, human
Description: (§1) Blood and plasma: Blood samples (18.7 mL per each time point) were collected into nonbeaded lithium-heparinized tubes immediately pre-dose and at the following post-dose times: 0.5, 1, 1.5, 2, 2.5, 3, 4, 6, 9, 12, 16, 20, 24, 36, 48, 72, 96, 120, 144, 192, 240, and 288 h. For each sample, 1 mL of whole blood was stored at 4 °C for subsequent LSC and the remainder was processed for plasma. Individual 150 μL plasma samples for each time point were treated with formic acid (20 μL) and acetonitrile (450 μL). The samples were homogenized using a MS2 Minishaker® (IKA® Labortechnik, Staufen im Breisgau, Germany). The precipitated proteins were removed by centrifugation (5 min, 13,000 rpm, Biofuge). After concentrating the supernatant to about 80 μL, methanol (15 μL) was added. The individual samples were analyzed by HPLC with off-line radioactivity detection for metabolite profiling.
(§2) Pharmacokinetic outcome measures were generated by non-compartmental analysis of plasma concentration–time data using WinNonlin v4.1 (Pharsight Corporation) in conjunction with Kincalc v2.50 (Bayer AG). For individual subjects, primary outcome measures were maximum observed concentration (C max) and area under the concentration–time curve from time zero to infinity (AUC). […] The metabolite or regorafenib percentages were calculated by AUC(0–144)metabolite or regorafenib divided by AUC(0–144)radioactivity calculated from data obtained by HPLC–LSC analysis. Secondary outcomes were: time to C max (t max); apparent terminal elimination half-life (t ½); apparent volume of distribution during the terminal phase after extravascular administration (Vz/F); and total body clearance of drug calculated after extravascular administration (e.g., apparent oral clearance) (CL/F). AUC was estimated by the sum of partial areas: partial areas were calculated using the linear (if C i ≤ C i+1) or the logarithmic (if C i > C i+1) trapezoidal rules. The quality of the half-life calculation was assessed based on graphs showing the concentration–time profile. For reliable calculation of the half-life, at least three data points (concentration/time values) were used. The extrapolated portion of the AUC from the last measured data point C(t n) to infinity was calculated using the concentration C last,calc, which was calculated from the log-linear regression line used for half-life calculation rather than C(t n). In addition, appropriate pharmacokinetic parameters were derived from the total radioactivity-versus-time data in blood and plasma.
Due to the limited amount of radiocarbon associated with many of the samples, analyses were conducted using HPLC with fraction collection followed by off-line LSC. Samples were analyzed on a 150 × 3 mm Prodigy® ODS-3 100A, 3 µm column (Phenomenex, Aschaffenburg, Germany) protected by 8 × 3 mm Nucleosil® 100-3 C18 HD guard columns (Macherey–Nagel, Düren, Germany). Metabolites were separated with a gradient of aqueous potassium dihydrogen phosphate (1 g/L, pH 2.0, mobile phase A) versus acetonitrile (mobile phase B) at a flow rate of 0.5 mL/min (gradient: 0% B at 0 min, linear to 50% B at 10 min, linear to 60% B at 25 min, linear to 80% B at 26 min, plateau at 80% B to 30 min). The radiochemical profile of [^14C]regorafenib-derived radioactivity was determined for all urine samples, plasma extracts, and fecal homogenate extracts. Here, HPLC fractionation into 96-well plates was followed by off-line LSC (Wallac 1450 MicroBeta liquid scintillation analyzer) after adding 150 μL of scintillation cocktail to each well (Ultima-Flo™ AP, PerkinElmer; sampling rate: 10 s/well) using the Wallac 1450 Microbeta™ Plusliquid detector. Reconstructed radiochemical profiles were compiled from the resulting data.

UGT1A9 = system: UGT1A9; parameters: method as in PMID 24896071, PMID 27734608; conditions: in vitro data; cited from earlier work
[2] = Total radioactivity in plasma and whole blood (LSC) after a single oral dose of [14C]regorafenib; assay type: in vivo, human; conditions: for C max of total radioactivity: geometric mean (%CV), N = 4
Description: Subjects were screened within the 28 days before scheduled drug administration and entered the clinical unit 1 day before drug administration. After an overnight fasting, subjects received a single oral 120 mg dose of regorafenib, containing approximately 100 μCi (3.7 MBq) [^14C]regorafenib, as a 6 mL solution in an aqueous PEG-based vehicle (Diluent Sol 30 mL oral, Bayer HealthCare AG) followed by 240 mL water. The associated radiation exposure fell within International Commission on Radiological Protection Guidelines for Category IIa studies (0.1–1 mSv).
as §1
Liquid samples: Duplicate aliquots of liquid samples were diluted with 1 mL distilled water, if necessary, and mixed with 10 mL Aquasafe 500 Plus scintillation fluid. Levels of radioactivity were measured by LSC (PerkinElmer 2100) with automatic quench correction by an external standard channel ratio method at 13 °C using Ultima Gold™ as the liquid scintillation cocktail. Lower limits of detection (LLOD) were 30 μg-Eq/L for plasma (sample volume 0.5 mL), 50 μg-Eq/L for whole blood (sample volume 0.3 mL), and 0.016 μg-Eq/g for urine (sample weight 1 g).
as §2, with “AG).” for “AG). For individual subjects, primary outcome measures were maximum observed concentration (C max) and area under the concentration–time curve from time zero to infinity (AUC).”, “For reliable calculation of the half-life, at least three data points (concentration/time values) were used.” left out

[3] = parameters: method as in PMID 22421192, PMID 22568966; conditions: steady state; cited from earlier work
[4] = Safety assessments in healthy male subjects; assay type: in vivo, human; conditions: single 120 mg dose, four subjects
Description: Blood pressure, pulse rate, electrocardiogram, physical examination, urine drug screening, and adverse events were evaluated throughout the study. The investigator obtained and recorded all the observed or reported adverse events, the severity (mild, moderate, or severe) of the events, and the relationship to study drug (in the investigator’s opinion).

[5] = parameters: method as in PMID 24896071; conditions: co-administration of ketoconazole with a single 160 mg dose of regorafenib; cited from earlier work

Percent of total AUC(0–144) of radioactivity in plasma ([1]; based on HPLC–LSC, mean): 57.4%
Mean total exposure, AUC(0–144 h) ([1]; plasma, HPLC–LSC): 46.89 mg-Eq·h/L
Estimated half-lives of total radioactivity, range between subjects ([2]; in vivo): 34 to 42 h
C max of total radioactivity ([2]; plasma): 2.90 mg-Eq/L
C max of total radioactivity ([2]; whole blood): 1.95 mg-Eq/L
SMILES: CNC(=O)c1cc(Oc2ccc(NC(=O)Nc3ccc(Cl)c(C(F)(F)F)c3)c(F)c2)ccn1 [Regorafenib, 4-[4-({[4-chloro-3-(trifluoromethyl)phenyl]carbamoyl}amino)-3-fluorophenoxy]-N-methylpyridine-2-carboxamide]
Enzyme catalyzing conjugation with glucuronic acid (UGT1A9): by UGT1A9
% of AUC(144–inf), extrapolated portion ([2]; total radioactivity): % of AUC(144–inf): total (2.6%), extrapolated portion
Binding of regorafenib-derived radioactivity to red blood cells ([2]; whole blood versus plasma radioactivity): does not bind substantially to red blood cells
Secondary maximum of plasma concentration–time profile [3]: 6 to 8 h
Tertiary maximum of plasma concentration–time profile [3]: ~24 h
Electrocardiograms, laboratory investigations, and vital signs [4]: no clinically relevant changes
Treatment-emergent adverse events ([4]; event considered unrelated to study drug): mild, non-serious headache
Increase in mean AUC [5]: 30–40%
Increase in mean C max [5]: 30–40%
